Experimental data from US20250099466A1 (BRISTOL-MYERS SQUIBB COMPANY, priority 2021, published 2025).

How the values were obtained:
[1] = tested on: electrically induced carotid artery thrombus (ECAT) in rabbits; assay: Treatment rabbit ECAT model (dosing 15 minutes after vessel injury); assay type: in vivo; settings: for carotid blood flow at 90 minutes (% of control carotid blood flow): n=6; for reduction in thrombus weight: treatment ECAT
Procedure: The rabbit ECAT model as described by Wong et al., Nonpeptide factor Xa inhibitors: II.
Male New Zealand white rabbits were anesthetized with ketamine (50 mg/kg+50 mg/kg/h intramuscularly) and xylazine (10 mg/kg+10 mg/kg/h intramuscularly). Thrombosis was induced by electrical stimulation of the control carotid artery for 3 minutes at 4 mA using an external stainless-steel bipolar electrode. Carotid blood flow was measured with an electromagnetic flow probe continuously over a 90-minute period to monitor thrombosis induced occlusion. Integrated carotid blood flow was measured by the area under the flowtime curve (see Wong et al.). In addition, thrombus from the injured artery was removed, blotted twice on a weighing paper to remove residual fluid, and weighed.
To achieve a stable plasma level with minimum experimental variability, compounds were administered by IV infusion. […] The IV infusion was continued throughout the experiment for both models.
(§1) Integrated blood flow, thrombus weight, aPTT (activated partial thromboplastin time), TT (thrombin time), and PT (prothrombin time) were also measured.

aPTT, TT, and PT = assay: Ex vivo aPTT, TT and PT in ECAT rabbits; parameters: species or system rabbit
Procedure: as §1

C[C@@H]1CCC[C@H](n2cnc(-c3cc(Cl)ccc3-n3cc(Cl)nn3)cc2=O)c2cc(ccn2)-c2c(cnn2C(F)F)NC1=O [milvexian, (5R,9S)-9-(4-(5-chloro-2-(4-chloro-1H-1,2,3-triazol-1-yl)phenyl)-6-oxopyrimidin-1(6H)-yl)-21-(difluoromethyl)-5-methyl-21H-3-aza-1(4,2)-pyridina-2(5,4)-pyrazolacyclononaphan-4-one]
carotid blood flow at 90 minutes (% of control carotid blood flow) ([1]; 0.25+0.17 mg/kg+mg/kg/h IV at 15 minutes after initiation of thrombosis): 39±10% | reduction in thrombus weight ([1]; 0.25+0.17 mg/kg+mg/kg/h IV): 25±7% | carotid blood flow at 90 minutes (% of control carotid blood flow) ([1]; 1+0.67 mg/kg+mg/kg/h IV at 15 minutes after initiation of thrombosis): 66±2% | reduction in thrombus weight ([1]; 1+0.67 mg/kg+mg/kg/h IV): 61±6% | ex vivo PT (aPTT, TT, and PT; prevention ECAT rabbits): did not alter TT and PT significantly | ex vivo TT (aPTT, TT, and PT; prevention ECAT rabbits): did not alter TT and PT significantly | ex vivo aPTT (aPTT, TT, and PT; prevention ECAT rabbits): elevated aPTT significantly at the highest 2 doses | prolongation of aPTT needed to achieve 50% thrombus weight reduction (aPTT, TT, and PT; rabbit ECAT): 1.6 fold
